What follows are compounds tested against GABAA receptor (assay: Steroid inhibition of [35S]-TBPS binding, rat brain cortical membranes). Settings: 3 nM [35S]-TBPS, in the presence of 5 mM GABA.
Experimental: [^35S]-t-Butylbicyclophosphorothionate (TBPS) binding assays using rat brain cortical membranes in the presence of 5 mM GABA has been described (Gee et al, J. Pharmacol. Exp. Ther. 1987, 241, 346-353; Hawkinson et al, Mol. Pharmacol. 1994, 46, 977-985; Lewin, A. H et al., Mol. Pharmacol. 1989, 35, 189-194).
Briefly, cortices are rapidly removed following decapitation of carbon dioxide-anesthetized Sprague-Dawley rats (200-250 g). The cortices are homogenized in 10 volumes of ice-cold 0.32 M sucrose using a glass/teflon homogenizer and centrifuged at 1500×g for 10 min at 4° C. The resultant supernatants are centrifuged at 10,000×g for 20 min at 4° C. to obtain the P2 pellets. The P2 pellets are resuspended in 200 mM NaCl/50 mM Na—K phosphate pH 7.4 buffer and centrifuged at 10,000×g for 10 min at 4° C. This washing procedure is repeated twice and the pellets are resuspended in 10 volumes of buffer. Aliquots ([…]) of the membrane suspensions are incubated with 3 nM [^35S]-TBPS and […] aliquots of test drug dissolved in dimethyl sulfoxide (DMSO) (final 0.5%) in the presence of 5 mM GABA. The incubation is brought to a final volume of 1.0 mL with buffer. Nonspecific binding is determined in the presence of […] and ranged from 15 to 25%. Following a 90 min incubation at room temp, the assays are terminated by filtration through glass fiber filters (Schleicher and Schuell No. 32) using a cell harvester (Brandel) and rinsed three times with ice-cold buffer. Filter bound radioactivity is measured by liquid scintillation spectrometry. Non-linear curve fitting of the overall data for each drug averaged for each concentration is done using Prism (GraphPad). […] The concentration of test compound producing 50% inhibition (IC50) of specific binding and the maximal extent of inhibition (Imax) are determined for the individual experiments with the same model used for the overall data and then the means±SEM.s of the individual experiments are calculated.
Various compounds are or can be screened to determine their potential as modulators of [^35S]-TBPS binding in vitro. These assays are or can be performed in accordance with the above
Compound `C[C@@]1(O)CC[C@H]2[C@H](CC[C@@H]3[C@@H]2CC[C@@]2(C)[C@H]3CC[C@@H]2[C@](C)(O)Cn2cc(C#N)cn2)C1` [Compound 2, 1-((S)-2-hydroxy-2-((3R,5R,8R,9R,10S,13S,14S,17S)-3-hydroxy-3,13-dimethylhexadecahydro-1H-cyclopenta[a]phenanthren-17-yl)propyl)-1H-pyrazole-4-carbonitrile] has an IC50 of under 100 nM. `COC[C@@]1(O)CC[C@H]2[C@H](CC[C@@H]3[C@@H]2CC[C@]2(C)[C@@H](C4(Cn5cc(C#N)cn5)COC4)CC[C@@H]32)C1` [Compound 40, 1-((3-((3R,5R,8R,9R,10S,13S,14S,17S)-3-hydroxy-3-(methoxymethyl)-13-methylhexadecahydro-1H-cyclopenta[a]phenanthren-17-yl)oxetan-3-yl)methyl)-1H-pyrazole-4-carbonitrile] gave an IC50 of under 100 nM. Work on `COC[C@@]1(O)CC[C@H]2[C@H](CC[C@@H]3[C@@H]2CC[C@]2(C)[C@@H](C(C)(Cn4cc(C#N)cn4)OC)CC[C@@H]32)C1` (stereo in doubt) [Compound 33, 1-[(2S)-2-[(1S,3aS,3bR,5aR,7R,9aS,9bR,11aS)-7-hydroxy-7-(methoxymethyl)-11a-methyl-hexadecahydro-1H-cyclopenta[a]phenanthren-1-yl]-2-methoxypropyl]-1H-pyrazole-4-carbonitrile] yielded an IC50 of 100 to 1000 nM. `CCC[C@@]1(O)CC[C@H]2[C@@H](CC[C@@H]3[C@@H]2CC[C@@]2(C)[C@H]3CC[C@@H]2[C@](C)(O)Cn2cc(C#N)cn2)C1` [Compound 9, 1-((S)-2-hydroxy-2-((3R,5S,8R,9R,10S,13S,14S,17S)-3-hydroxy-13-methyl-3-propylhexadecahydro-1H-cyclopenta[a]phenanthren-17-yl)propyl)-1H-pyrazole-4-carbonitrile] was tested, and the IC50 was 100 to 1000 nM. `CC[C@]12CC[C@@](C)(O)C[C@H]1CC[C@H]1[C@@H]3CC[C@H]([C@](C)(O)Cn4cc(C#N)cn4)[C@@]3(C)CC[C@@H]12` [Compound 3, 1-((S)-2-((3R,5R,8S,9S,10S,13S,14S,17S)-10-ethyl-3-hydroxy-3,13-dimethylhexadecahydro-1H-cyclopenta[a]phenanthren-17-yl)-2-hydroxypropyl)-1H-pyrazole-4-carbonitrile] was tested, and the IC50 was under 100 nM. `CC[C@]12CC[C@@](C)(O)C[C@H]1CC[C@H]1[C@@H]3CC[C@H]([C@@](C)(Cn4cc(C#N)cn4)OC)[C@@]3(C)CC[C@@H]12` [Compound 5, 1-((S)-2-((3R,5R,8S,9S,10S,13S,14S,17S)-10-ethyl-3-hydroxy-3,13-dimethylhexadecahydro-1H-cyclopenta[a]phenanthren-17-yl)-2-methoxypropyl)-1H-pyrazole-4-carbonitrile] gave an IC50 of under 100 nM. `C[C@@H]1C[C@H]([C@@](C)(O)Cn2cc(C#N)cn2)[C@@]2(C)CC[C@H]3[C@@H](CC[C@@H]4C[C@](C)(O)CC[C@@H]43)[C@H]12` [Compound 49, 1-((R)-2-hydroxy-2-((3R,5R,8R,9R,10S,13S,14S,15R,17S)-3-hydroxy-3,13,15-trimethylhexadecahydro-1H-cyclopenta[a]phenanthren-17-yl)propyl)-1H-pyrazole-4-carbonitrile] showed an IC50 of under 100 nM. For `CCOC[C@@]1(O)CC[C@@]2(C)[C@H](CC[C@@H]3[C@@H]2CC[C@@]2(C)[C@H]3CC[C@@H]2[C@@](C)(O)Cn2cc(C#N)cn2)C1` [Compound 25, 1-((R)-2-((3R,5R,8R,9S,10S,13S,14S,17S)-3-(ethoxymethyl)-3-hydroxy-10,13-dimethylhexadecahydro-1H-cyclopenta[a]phenanthren-17-yl)-2-hydroxypropyl)-1H-pyrazole-4-carbonitrile], the IC50 was 100 to 1000 nM. For `CC[C@]12CC[C@@](C)(O)C[C@H]1CC[C@H]1[C@@H]3CC[C@H]([C@](C)(Cn4cc(C#N)cn4)OC)[C@@]3(C)CC[C@@H]12` [Compound 6, 1-((R)-2-((3R,5R,8S,9S,10S,13S,14S,17S)-10-ethyl-3-hydroxy-3,13-dimethylhexadecahydro-1H-cyclopenta[a]phenanthren-17-yl)-2-methoxypropyl)-1H-pyrazole-4-carbonitrile], the IC50 was under 100 nM. In the case of `COC[C@H]1C[C@H]2[C@H](CC[C@@H]3[C@@H]2CC[C@@]2(C)[C@H]3CC[C@@H]2[C@@](C)(O)Cn2cc(C#N)cn2)C[C@]1(C)O` [Compound 59, 1-((R)-2-hydroxy-2-((2R,3S,5R,8R,9R,10S,13S,14S,17S)-3-hydroxy-2-(methoxymethyl)-3,13-dimethylhexadecahydro-1H-cyclopenta[a]phenanthren-17-yl)propyl)-1H-pyrazole-4-carbonitrile], the IC50 is reported as 100 to 1000 nM. Compound `COC[C@@]1(O)CC[C@H]2[C@H](CC[C@@H]3[C@@H]2CC[C@@]2(C)[C@H]3CC[C@@H]2[C@@](C)(O)Cn2cc(C#N)cn2)C1` [Compound 30, 1-((R)-2-hydroxy-2-((3R,5R,8R,9R,10S,13S,14S,17S)-3-hydroxy-3-(methoxymethyl)-13-methylhexadecahydro-1H-cyclopenta[a]phenanthren-17-yl)propyl)-1H-pyrazole-4-carbonitrile] has an IC50 of 100 to 1000 nM. `CCC[C@@]1(O)CC[C@H]2[C@@H](CC[C@@H]3[C@@H]2CC[C@@]2(C)[C@H]3CC[C@@H]2[C@@](C)(O)Cn2cc(C#N)cn2)C1` [Compound 10, 1-((R)-2-hydroxy-2-((3R,5S,8R,9R,10S,13S,14S,17S)-3-hydroxy-13-methyl-3-propylhexadecahydro-1H-cyclopenta[a]phenanthren-17-yl)propyl)-1H-pyrazole-4-carbonitrile] gave an IC50 of at least 1000 nM. With `C[C@@]1(O)CC[C@H]2[C@H](CC[C@@H]3[C@@H]2CC[C@@]2(C)[C@H]3[C@H](C3CC3)C[C@@H]2[C@@](C)(O)Cn2cc(C#N)cn2)C1` [Compound 46, 1-((R)-2-((3R,5R,8R,9R,10S,13S,14S,15S,17S)-15-cyclopropyl-3-hydroxy-3,13-dimethylhexadecahydro-1H-cyclopenta[a]phenanthren-17-yl)-2-hydroxypropyl)-1H-pyrazole-4-carbonitrile] the IC50 was under 100 nM. Work on `COC[C@@]1(O)CC[C@@]2(C)[C@H](CC[C@@H]3[C@@H]2CC[C@@]2(C)[C@H]3CC[C@@H]2[C@](C)(Cn2cc(C#N)cn2)OC)C1` [Compound 55, 1-((R)-2-((3R,5R,8R,9S,10S,13S,14S,17S)-3-hydroxy-3-(methoxymethyl)-10,13-dimethylhexadecahydro-1H-cyclopenta[a]phenanthren-17-yl)-2-methoxypropyl)-1H-pyrazole-4-carbonitrile] yielded an IC50 of 100 to 1000 nM. With `C[C@@]1(O)CC[C@H]2[C@H](CC[C@@H]3[C@@H]2CC[C@@]2(C)[C@H]3CC[C@@H]2[C@@](C)(O)Cn2cc(C#N)cn2)C1` [Compound 1, 1-((R)-2-hydroxy-2-((3R,5R,8R,9R,10S,13S,14S,17S)-3-hydroxy-3,13-dimethylhexadecahydro-1H-cyclopenta[a]phenanthren-17-yl)propyl)-1H-pyrazole-4-carbonitrile] the IC50 was under 100 nM. With `COC[C@@H]1C[C@H]2[C@H](CC[C@@H]3[C@@H]2CC[C@@]2(C)[C@H]3CC[C@@H]2[C@@](C)(O)Cn2cc(C#N)cn2)C[C@]1(C)O` [Compound 59A, 1-((R)-2-hydroxy-2-((2S,3S,5R,8R,9R,10S,13S,14S,17S)-3-hydroxy-2-(methoxymethyl)-3,13-dimethylhexadecahydro-1H-cyclopenta[a]phenanthren-17-yl)propyl)-1H-pyrazole-4-carbonitrile] the IC50 was 100 to 1000 nM. `CC[C@@]1(O)CC[C@H]2[C@@H](CC[C@@H]3[C@@H]2CC[C@@]2(C)[C@H]3CC[C@@H]2[C@](C)(O)Cn2cc(C#N)cn2)C1` [Compound 13, 1-((S)-2-((3R,5S,8R,9R,10S,13S,14S,17S)-3-ethyl-3-hydroxy-13-methylhexadecahydro-1H-cyclopenta[a]phenanthren-17-yl)-2-hydroxypropyl)-1H-pyrazole-4-carbonitrile] showed an IC50 of 100 to 1000 nM. For `CC[C@@]1(O)CC[C@H]2[C@H](CC[C@@H]3[C@@H]2CC[C@@]2(C)[C@H]3CC[C@@H]2[C@](C)(O)Cn2cc(C#N)cn2)C1` [Compound 11, 1-((S)-2-((3R,5R,8R,9R,10S,13S,14S,17S)-3-ethyl-3-hydroxy-13-methylhexadecahydro-1H-cyclopenta[a]phenanthren-17-yl)-2-hydroxypropyl)-1H-pyrazole-4-carbonitrile], the IC50 was under 100 nM.

Source: patent US20250236639A1, “NEUROACTIVE STEROIDS AND COMPOSITIONS THEREOF” (Sage Therapeutics, Inc., priority 2019, published 2025)
